The values below come from ChEMBL document CHEMBL1141459, “Kv7 (KCNQ) channel modulators and neuropathic pain” (J Med Chem, 2007).

Data set [1] deals with Rattus norvegicus. Put plainly: Analgesic activity in SNL nerve injury in iv dosed rat model. Type of data set: functional. The note with it: for minimal effective dose: Rattus norvegicus, iv, read-out: MED.
Data set [2] is filed under the species Rattus norvegicus. Put plainly: Analgesic activity in streptozotocin-induced diabetic rat model of pain. Type of data set: functional. The conditions noted are these: read-out: MED.
Data set [3] deals with Rattus norvegicus. Briefly: Analgesic activity in SNL nerve injury in po dosed rat model. The data set is classed as functional.
Data set [4] relates to Rattus norvegicus. Put plainly: Analgesic activity in carrageenan model in po dosed rat model. Type of data set: functional. The conditions noted are these: read-out: MED.
Data set [5] in a line: Therapeutic index, ratio of ED50 in rotor rod test in rat to ED50 in rat spinal nerve ligation model of neuropathic pain. The data set is classed as organism-based. The conditions noted are these: in vivo, read-out: TI.
In data set [6] the test system is Rattus norvegicus. Briefly: Analgesic activity in CCI and SNL nerve injury in po dosed rat model of pain. The data set is classed as functional. The note with it: read-out: MED.
Data set [7] is filed under the species Rattus norvegicus. Briefly: Toxicity in rat by rotarod test. The note with it: in vivo. The data set is classed as organism-based. (In the rotarod test animals must keep their balance on a rotating rod.)
The subject of data set [8] is Rattus norvegicus. Put plainly: Analgesic activity in formalin-induced pain hypersensitivity in ip dosed rat. The data set is classed as functional.
The target of data set [9] is Potassium voltage-gated channel subfamily KQT member 2 (Homo sapiens, UniProt O43526). Put plainly: Activity at Kv 7.2 channel expressed in cloned CHO cells by [86Rb] efflux assay. Type of data set: cell-based.
A short description of data set [10]: Therapeutic index, ratio of ED50 in rotor rod test in rat to ED50 in rat kindling model of epileptic seizures. The conditions noted are these: read-out: TI.
A short description of data set [11]: Activity at Kv.7 channel expressed in cloned CHO cells by patch clamp method. Type of data set: cell-based. A general note: The patch-clamp technique gives a direct electrical read-out from membranes.
Data set [12] concerns Rattus norvegicus. Put plainly: Analgesic activity in formalin-induced pain hypersensitivity in po dosed rat. The data set is classed as functional.

Potassium voltage-gated channel subfamily KQT member 2, sequence (O43526 whole entry): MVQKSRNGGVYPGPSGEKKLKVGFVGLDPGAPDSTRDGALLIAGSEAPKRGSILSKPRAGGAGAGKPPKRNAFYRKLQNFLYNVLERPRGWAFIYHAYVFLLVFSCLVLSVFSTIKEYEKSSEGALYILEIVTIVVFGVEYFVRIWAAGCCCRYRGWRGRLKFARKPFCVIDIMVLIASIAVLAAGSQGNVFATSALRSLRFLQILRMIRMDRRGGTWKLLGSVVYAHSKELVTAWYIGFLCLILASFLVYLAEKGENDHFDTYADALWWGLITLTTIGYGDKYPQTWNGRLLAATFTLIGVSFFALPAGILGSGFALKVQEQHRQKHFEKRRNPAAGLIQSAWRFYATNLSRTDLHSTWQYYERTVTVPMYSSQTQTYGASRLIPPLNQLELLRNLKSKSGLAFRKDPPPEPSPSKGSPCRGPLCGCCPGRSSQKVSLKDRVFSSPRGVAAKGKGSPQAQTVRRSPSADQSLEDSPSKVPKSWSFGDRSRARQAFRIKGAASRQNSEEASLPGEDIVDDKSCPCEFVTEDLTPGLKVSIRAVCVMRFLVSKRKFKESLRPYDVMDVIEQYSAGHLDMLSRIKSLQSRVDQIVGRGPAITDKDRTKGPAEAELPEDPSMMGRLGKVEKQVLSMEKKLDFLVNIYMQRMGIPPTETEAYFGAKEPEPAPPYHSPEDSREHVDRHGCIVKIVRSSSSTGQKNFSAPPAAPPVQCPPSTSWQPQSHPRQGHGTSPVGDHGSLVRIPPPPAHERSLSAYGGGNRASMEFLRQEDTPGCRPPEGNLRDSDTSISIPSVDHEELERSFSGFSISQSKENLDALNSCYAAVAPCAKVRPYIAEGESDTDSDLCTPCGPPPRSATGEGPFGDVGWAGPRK

As to `C[C@H](NC(=O)/C=C/c1ccc(F)cc1)c1ccc(F)c(N2CCOCC2)c1`, the minimal effective dose in the data set on Rattus norvegicus [1] and in the data set filed under Rattus norvegicus [2] was 10 mg/kg throughout.

Turning to `C[C@H](NC(=O)/C=C/c1ccccc1F)c1cccc(-n2cccn2)c1`, the minimal effective dose with Rattus norvegicus [1] turned out to be 10 mg/kg.

Regarding `CC(NC(=O)c1sc(-c2ccccc2F)nc1C(F)(F)F)c1cccc(-c2cccc(OC(F)(F)F)c2)c1` (stereo unspecified), in the data set on Rattus norvegicus [1], the MED is 10 mg/kg and the minimal effective dose came to 10 mg/kg.

In the case of `C[C@H](NC(=O)/C=C/c1ccccc1F)c1cccc(Oc2cccnc2)c1`, the minimal effective dose in the data set with Rattus norvegicus [1] was 10 mg/kg.

Regarding `O=C(Nc1ccc(Cl)nc1)c1ccc(F)c(F)c1`, the 50% effect level in the data set with Rattus norvegicus [3] (ED50) was put at a dose of 25 mg/kg. Besides, the minimal effective dose in the data set on Rattus norvegicus [4] worked out at 30 mg/kg.

As for `CCOC(=O)Nc1ccc(NCc2ccc(F)cc2)cc1N` [EZOGABINE], the figures for the selectivity ratio in [5] and in [10] were 1.6 and 4, respectively. The minimal effective dose in the data set on Rattus norvegicus [6] was 10 mg/kg. Also, the ED50 (usually the dose that gives a 50% effect, or the effect in half of the subjects) in the data set listed under Rattus norvegicus [7] is 40 mg/kg; in the data set on Rattus norvegicus [8] it was 6.6 mg/kg; in the data set with Rattus norvegicus [12] it was 47.6 mg/kg. The EC50 – broadly, the concentration giving half of the maximal effect – was less than 150 nM in [9] and 1000 nM in data set [11].
